According to PubChem BioAssay AID328 (DTP/NCI, 2004):
Several values for one entry are separate records, joined by “and”; a condition that tells them apart may be missing. Equal entries are not always repeated. Inconclusive results and toxic doses are left out. Rule for the calls: active = survival T/C of 150% or more; inactive = T/C below 125% in these data.

Tested on: BDF1 mice, P388 leukemia ip, median survival T/C
Experiment: NCI In Vivo Anticancer Drug Screen. Data for tumor model P388 Leukemia (intraperitoneal) in B6D2F1 (BDF1) mice
Conditions: endpoint: median survival time, higher = longer survival
In short: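 Mice carrying the transplantable tumour receive compound or vehicle. Survival is followed in each arm, and the treated measure is divided by the vehicle measure.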

[1] = dose: 50.0 mg/kg/injection, schedule: Q01DX009 (ip), vehicle: saline
[2] = dose: 100.0 mg/kg/injection, schedule: Q01DX009 (ip), vehicle: saline
[3] = dose: 100.0 mg/kg/injection, schedule: Q04DX003 (ip), vehicle: saline
[4] = dose: 200.0 mg/kg/injection, schedule: Q01DX009 (ip), vehicle: saline
[5] = dose: 200.0 mg/kg/injection, schedule: Q04DX003 (ip), vehicle: saline
[6] = dose: 400.0 mg/kg/injection, schedule: Q01DX009 (ip), vehicle: saline

Measured: T/C

COc1cc2c(cc1OC)-c1c3c(cc4c1[C@H](C2)N(C)CC4)OCO3
inactive: dose: 37.5 mg/kg/injection, schedule: Q01DX009 (ip), vehicle: Klucel (hydroxypropylcellulose) (HPC) 97 % of control | dose: 75.0 mg/kg/injection, schedule: Q01DX009 (ip), vehicle: Klucel (hydroxypropylcellulose) (HPC) 98 % of control | dose: 150.0 mg/kg/injection, schedule: Q01DX009 (ip), vehicle: Klucel (hydroxypropylcellulose) (HPC) 98 % of control

O=c1[nH]cc(CCCO)c(=O)[nH]1
inactive: [1] 91 % of control | [2] 102 % of control | [3] 109 % of control | [4] 100 % of control | [5] 100 % of control | [6] 100 % of control | dose: 400.0 mg/kg/injection, schedule: Q04DX003 (ip), vehicle: saline 109 % of control

CC(=O)CC(C)=O.CC(=O)CC(C)=O.CC(=O)CC(C)=O.[In]
inactive: [3] 109 % of control | [5] 104 % of control

CCN(CC)CCOc1ccccc1C
inactive: dose: 20.0 mg/kg/injection, schedule: Q01DX009 (ip), vehicle: saline 107 % of control | dose: 20.0 mg/kg/injection, schedule: Q04DX003 (ip), vehicle: saline 100 % of control | dose: 40.0 mg/kg/injection, schedule: Q01DX009 (ip), vehicle: saline 100 % of control | dose: 40.0 mg/kg/injection, schedule: Q04DX003 (ip), vehicle: saline 91 % of control | dose: 80.0 mg/kg/injection, schedule: Q01DX009 (ip), vehicle: saline 89 % of control | dose: 80.0 mg/kg/injection, schedule: Q04DX003 (ip), vehicle: saline 91 % of control

CCOC(=O)C(=CC(CC)(C(=O)OCC)C(=O)OCC)C(=O)OCC
inactive: [2] 95 % of control | [4] 104 % of control | [6] 104 % of control

COc1cc2cc[n+](C)cc2cc1OC
inactive: dose: 6.25 mg/kg/injection, schedule: Q04DX003 (ip), vehicle: water 94 % of control | dose: 12.5 mg/kg/injection, schedule: Q04DX003 (ip), vehicle: water 94 % of control | dose: 25.0 mg/kg/injection, schedule: Q04DX003 (ip), vehicle: saline 100 % of control | dose: 25.0 mg/kg/injection, schedule: Q04DX003 (ip), vehicle: water 107 % of control | [1] 100 % of control | dose: 50.0 mg/kg/injection, schedule: Q04DX003 (ip), vehicle: saline 86 % of control and 104 % of control | dose: 50.0 mg/kg/injection, schedule: Q04DX003 (ip), vehicle: water 111 % of control | [2] 100 % of control | [3] 88 % of control and 90 % of control and 113 % of control | dose: 100.0 mg/kg/injection, schedule: Q04DX003 (ip), vehicle: water 111 % of control

O=C(NC(Cl)=C(Cl)Cl)P(=O)(c1ccccc1)c1ccccc1
inactive: dose: 50.0 mg/kg/injection, schedule: Q01DX005 (ip), vehicle: saline with Tween-80 92 % of control | dose: 100.0 mg/kg/injection, schedule: Q01DX005 (ip), vehicle: saline with Tween-80 111 % of control | dose: 200.0 mg/kg/injection, schedule: Q01DX005 (ip), vehicle: saline with Tween-80 95 % of control

COc1ccc(CC#N)c(OCc2ccccc2)c1
inactive: dose: 12.5 mg/kg/injection, schedule: Q01DX009 (ip), vehicle: other 104 % of control | dose: 25.0 mg/kg/injection, schedule: Q01DX009 (ip), vehicle: other 102 % of control | dose: 50.0 mg/kg/injection, schedule: Q01DX009 (ip), vehicle: other 98 % of control | dose: 100.0 mg/kg/injection, schedule: Q01DX009 (ip), vehicle: other 89 % of control | dose: 200.0 mg/kg/injection, schedule: Q01DX009 (ip), vehicle: other 95 % of control

CCCCCCCCC(C(O)c1ccccc1)C(O)(C(F)(F)F)C(F)(F)F (configuration not stated)
inactive: dose: 100.0 mg/kg/injection, schedule: Q04DX003 (ip), vehicle: other 90 % of control | dose: 200.0 mg/kg/injection, schedule: Q04DX003 (ip), vehicle: other 95 % of control | dose: 400.0 mg/kg/injection, schedule: Q04DX003 (ip), vehicle: other 115 % of control
